# From ChEMBL document CHEMBL4145635, “Applying Molecular Networking for the Detection of Natural Sources and Analogues of the Selective Gq Protein Inhibitor FR900359” (J Nat Prod, 2018)
# *1 amine or outer side, *2 acyl side, *3 side chain or, on linkers, in order; H or OH if unused. Where a SMILES comes first, the peptide text is derived from it. Bridges are numbered along the chain shown (N, C = ends). [ ]: non-standard residue; d: D form. The star is where a group is joined. Leu(3R-O(AcLeu(3R-OH))) = CC(=O)N[C@H](C(=O)O[C@H](C(C)C)[C@H](N)C(=O)O)[C@H](O)C(C)C; Leu(3R-OH,Nα-propionyl) = CCC(=O)N[C@H](C(=O)*)[C@H](O)C(C)C; X1 = CC(C)[C@@H](O[*:3])[C@H](N[*:1])C(=O)[*:2]; NMeT = CN[C@H](C(=O)O)[C@@H](C)O; dPhLac = O=C(O)[C@H](O)Cc1ccccc1; NMeA = CN[C@@H](C)C(=O)O; NMeDha = C=C(NC)C(=O)O
# Legend:
# [1] = Displacement of [3H]PSB-15900 from Gq (unknown origin) expressed in platelet cell membranes; design: species or system Homo sapiens
# [2] = Inhibition of Gq (unknown origin) coupled with muscarinic M1 receptor expressed in CHO cells assessed as reduction in carbachol-induced IP1 accumulation pretreated for 1 hr followed by carbachol addition measured after 35 mins by HTRF assay; type: cell-based
pIC50 [1],IC50 [2],Structure (SMILES)
7.79 to 8.64,2.29 to 16.2 nM,C=C1C(=O)N[C@@H](C)C(=O)N(C)[C@@H](C)C(=O)N[C@@H]([C@H](OC(=O)[C@@H](NC(=O)CC)[C@H](O)C(C)C)C(C)C)C(=O)N(C)[C@@H]([C@@H](C)OC)C(=O)O[C@H](C(C)C)[C@H](NC(=O)CCO)C(=O)O[C@H](Cc2ccccc2)C(=O)N1C
7.79 to 8.64,2.29 to 16.2 nM,C=C1C(=O)N[C@@H](C)C(=O)N(C)[C@@H](C)C(=O)N[C@@H]([C@H](OC(=O)[C@@H](NC(C)=O)[C@H](O)C(C)C)C(C)C)C(=O)N(C)[C@@H]([C@@H](C)OC)C(=O)O[C@H](C(C)C)[C@H](NC(C)=O)C(=O)O[C@H](Cc2ccccc2)C(=O)N1C (Ac-[X1][dPhLac][NMeDha]A[NMeA][Leu(3R-O(AcLeu(3R-OH)))][NMeT](Me); ester 1-C)

Structure (SMILES),pIC50 [1],IC50 [2]
"C=C1C(=O)N[C@@H](C)C(=O)N(C)[C@@H](C)C(=O)N[C@@H]([C@H](OC(=O)[C@@H](NC(=O)CC)[C@H](O)C(C)C)C(C)C)C(=O)N(C)[C@@H]([C@@H](C)OC)C(=O)O[C@H](C(C)C)[C@H](NC(C)=O)C(=O)O[C@H](Cc2ccccc2)C(=O)N1C (Ac-[X1][dPhLac][NMeDha]A[NMeA][X1](Leu(3R-OH,Nα-propionyl))[NMeT](Me); ester 1-C)",7.79 to 8.64,2.29 to 16.2 nM
